Like-named read-outs stand apart in the source and are kept apart here. Each block holds one compound with its values, some of them ahead of it.
How the values were obtained:
β-galactosidase [1] = target: T1, β-galactosidase (Escherichia coli, UniProt P00722); details: available from the literature, cited from earlier work
[2] = Molar absorptivity of phenolic precursors of substrates; assay type: physicochemical
Procedure: The molar absorptivity (εmax) of the phenolic precursors of several substrates of this invention were measured and calculated according to the following formula: [formula] wherein A is the absorbance; b is the path length through the sample; and c is the concentration of solute.
The molar absorptivity of the phenolic precursor of ONPG, the most commonly used prior art substrate for β-galactosidase was likewise measured and calculated for comparative purposes. The aim was to identify phenolic precursors which would provide enhanced molar absorptivity to that of ONPG.

β-galactosidase [3] = target: T1, β-galactosidase; assay type: biochemical; details: for V max / Km: calculated from experimental data of Figs. 1 and 2
β-galactosidase [4] = target: T1, β-galactosidase; assay type: biochemical; details: antibody titration curve, Fig. 3
[5] = Stability in aqueous environment; assay type: physicochemical

T1 sequence (P00722 2-1024): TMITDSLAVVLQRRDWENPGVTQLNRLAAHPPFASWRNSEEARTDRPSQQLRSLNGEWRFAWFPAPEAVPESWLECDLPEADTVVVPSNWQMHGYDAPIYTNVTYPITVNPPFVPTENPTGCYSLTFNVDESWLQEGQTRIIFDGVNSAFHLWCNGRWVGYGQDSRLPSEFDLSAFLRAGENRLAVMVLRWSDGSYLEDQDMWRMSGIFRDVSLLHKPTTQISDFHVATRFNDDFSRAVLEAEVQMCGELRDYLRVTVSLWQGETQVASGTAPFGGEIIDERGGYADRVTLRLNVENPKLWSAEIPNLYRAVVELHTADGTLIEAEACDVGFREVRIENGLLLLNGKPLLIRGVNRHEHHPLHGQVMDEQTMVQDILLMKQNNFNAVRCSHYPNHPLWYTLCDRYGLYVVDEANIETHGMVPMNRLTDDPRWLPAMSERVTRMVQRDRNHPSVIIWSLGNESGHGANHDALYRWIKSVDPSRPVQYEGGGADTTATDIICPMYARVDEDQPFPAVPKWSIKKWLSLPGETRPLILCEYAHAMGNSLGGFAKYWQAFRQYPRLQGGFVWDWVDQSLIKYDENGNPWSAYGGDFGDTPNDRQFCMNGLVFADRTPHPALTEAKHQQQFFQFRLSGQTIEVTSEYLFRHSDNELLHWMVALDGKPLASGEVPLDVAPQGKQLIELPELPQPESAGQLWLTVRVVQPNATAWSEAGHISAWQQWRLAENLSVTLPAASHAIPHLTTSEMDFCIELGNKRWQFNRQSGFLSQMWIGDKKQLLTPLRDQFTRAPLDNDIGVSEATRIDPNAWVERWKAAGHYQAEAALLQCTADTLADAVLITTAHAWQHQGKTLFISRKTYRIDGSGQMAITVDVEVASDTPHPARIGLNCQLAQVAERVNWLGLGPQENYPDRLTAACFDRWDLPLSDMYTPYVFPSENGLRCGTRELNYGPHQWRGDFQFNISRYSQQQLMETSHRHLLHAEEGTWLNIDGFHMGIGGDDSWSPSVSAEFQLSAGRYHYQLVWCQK

Compound: O=[N+]([O-])c1ccccc1O[C@@H]1O[C@H](CO)[C@H](O)[C@H](O)[C@H]1O [ONPG, O-nitrophenyl-β-D-galactopyranoside]
V max (β-galactosidase [1]): 0.03 ΔA/Min | Km (β-galactosidase [1]; read-out: Km): 170 µM

Compound: O=[N+]([O-])c1ccccc1O [ONP, orthonitro phenol, reference compound]
Molar Absorptivity (εmax) ([2]; 405 nm, pH 7.5): 3.0 (405 nm, pH 7.5)

Compound: O=[N+]([O-])c1cccc(Cl)c1O [2-chloro-6-nitrophenol]
Molar Absorptivity (εmax) ([2]; 405 nm, pH 7.5): 4.6 (405 nm, pH 7.5)

Molar Absorptivity (εmax) ([2]; 575 nm, pH 8.5): 8.4 (575 nm, pH 8.5)
Compound: Cc1cc(O)ccc1C1(c2ccc(O)cc2C)OS(=O)(=O)c2ccccc21 [metacresol purple]

Compound: O=[N+]([O-])c1cc(Cl)c(O)c(Cl)c1 [2,6-dichloro-4-nitrophenol]
Molar Absorptivity (εmax) ([2]; 405 nm, pH 7.5): 15.9 (405 nm, pH 7.5)

Compound: bromocresol purple-β-D-galactopyranoside [BCPG, reference compound]
V max (β-galactosidase [3]): 0.11 ΔA/Min | Km (β-galactosidase [3]; read-out: Km): 8000 µM

Compound: O=[N+]([O-])c1ccc(O[C@@H]2O[C@H](CO)[C@H](O)[C@H](O)[C@H]2O)c(Cl)c1 [CLNPG, 2-chloro-4-nitrophenyl-β-D-galactopyranoside]
V max relative to that of ONPG (β-galactosidase [3]; CLNPG versus ONPG): at least four times | Km (β-galactosidase [3]): 200 µM | V max (β-galactosidase [3]): 0.13 ΔA/Min | increase in assay sensitivity over ONPG (β-galactosidase [4]): four-fold

Compound: O=[N+]([O-])c1ccc(O)c([N+](=O)[O-])c1 [DNP, 2,4-dinitro phenol]
Molar Absorptivity (εmax) ([2]; pH 7.5): 10.7 (405 nm, pH 7.5)

Compound: O=[N+]([O-])c1ccc(O)c(Cl)c1 [CLNP, 2-chloro-4-nitrophenol]
Molar Absorptivity (εmax) ([2]; 405 nm, pH 7.5): 16.9 (405 nm, pH 7.5)

Compound: O=[N+]([O-])c1ccc(O[C@@H]2O[C@H](CO)[C@H](O)[C@H](O)[C@H]2O)c([N+](=O)[O-])c1 [DNPG, 2,4-dinitro-phenyl-β-D-galactopyranoside]
stability in aqueous environment [5]: unstable | Km (β-galactosidase [1]): 220 µM | V max (β-galactosidase [1]): 0.13 ΔA/Min

Molar Absorptivity (εmax) ([2]; 585 nm, pH 8.5): 50.7 (585 nm, pH 8.5)
Compound: Cc1cc(C2(c3cc(C)c(O)c(Br)c3)OS(=O)(=O)c3ccccc32)cc(Br)c1O [bromocresol purple]

Source: patent EP0292169B1, “Substrates for B-galactosidase” (Bayer Corporation, priority 1987, dated 1988)
